Each structure is given as a SMILES string.

Trehalose-binding lipoprotein LpqY (Mycobacterium tuberculosis), sequence (P9WGU9 whole entry): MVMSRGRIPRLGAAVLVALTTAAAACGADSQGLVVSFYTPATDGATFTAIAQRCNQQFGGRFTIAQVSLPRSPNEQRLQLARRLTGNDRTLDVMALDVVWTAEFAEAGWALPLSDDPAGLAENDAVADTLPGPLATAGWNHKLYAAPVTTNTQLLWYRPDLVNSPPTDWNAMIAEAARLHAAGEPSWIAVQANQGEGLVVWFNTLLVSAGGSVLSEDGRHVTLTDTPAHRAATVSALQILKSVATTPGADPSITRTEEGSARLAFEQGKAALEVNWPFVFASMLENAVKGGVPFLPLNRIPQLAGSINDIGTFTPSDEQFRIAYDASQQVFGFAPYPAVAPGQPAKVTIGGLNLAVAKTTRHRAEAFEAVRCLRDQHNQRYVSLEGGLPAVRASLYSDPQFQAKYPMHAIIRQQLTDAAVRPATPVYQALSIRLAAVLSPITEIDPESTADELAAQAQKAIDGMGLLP

The assay addresses Trehalose-binding lipoprotein LpqY (Mycobacterium tuberculosis) (UniProt P9WGU9). As to the kind of experiment: Binding affinity to RED-NHS labelled Mycobacterium tuberculosis LpqY expressed in Escherichia coli BL21 (DE3) assessed as dissociation constant incubated for 10 mins by Microscale thermophoresis analysis. The settings on record: DDE = dose-dependent effect.
Regarding `CNC(=O)c1nn(C)c2c1C(C)(C)Cc1cnc(Nc3ccc(N4CCN(C)CC4)cc3)nc1-2`, the Activity result is “Dde”. With `Nc1cccnc1Nc1ccc(Cl)cc1` the entry was “Dde”; with `COc1cc(NC(C)CCCN)c2ncccc2c1` (stereo not drawn), “Dde”.
